Legend:
[1] = target: E. coli ammonium channel C-terminally fused to green fluorescent protein (AmtB-GFP) (Escherichia coli, UniProt P69681, S65T); details: AmtB-GFP trimer in MS buffer with 2x CMC of the detergent; charge state envelopes modelled with a Gaussian
Protocol: The activation energy required to achieve resolved peaks of E. coli ammonium channel C-terminally fused to green fluorescent protein (AmtB-GFP) was assessed for a variety of non-ionic detergents.
AmtB-GFP was extracted from purified membranes (described above) with 1-2% (w/v) of the detergent of interest in Buffer B and incubated for one to three hours at room temperature or overnight at 4° C. Insoluble material was pelleted by centrifugation at 20,000 g for 25 minutes at 4° C. The clarified supernatant was loaded onto small Ni-NTA agarose (Qiagen) drip columns (Bio-spin Chromatography columns, Bio-Rad) and washed with several column volumes of Buffer C (200 mM sodium chloride, 20 mM Imidazole, 5 mM BME, 2× CMC detergent of interest, and 50 mM TRIS, pH 8.0 at room temperature). AmtB-GFP was eluted with two column volumes of Buffer D (100 mM sodium chloride, 250 mM Imidazole, 5 mM BME, 2× CMC detergent of interest, and 50 mM TRIS, pH 8.0 at room temperature). Eluted protein was concentrated using a 100 kDa MWCO concentrator and buffer exchanged into MS Buffer (2× CMC detergent of interest and 200 mM Ammonium Acetate, pH 8.0 with Ammonium Hydroxide) using a centrifugal buffer exchange device (Micro Bio-Spin 6, Bio-Rad).
Buffer exchanged protein was analysed on a Q-TOF 2 mass spectrometer (Micromass, Manchester, UK) with a Z-spray source including modifications for protein complexes after introduction of complexes from gold-coated nanoflow capillaries.

ammonia channel (AmtB) = ammonia channel (AmtB) (Escherichia coli, UniProt P69681); assay: Phospholipid binding to AmtB resolved by native MS / IM-MS in C8E4; design: species or system E. coli; details: AmtB in C8E4; optimised P:L:D ratio of Table 2
[2] = target: T1, mechanosensitive channel of large conductance (MscL) (Mycobacterium tuberculosis, UniProt P9WJN5); assay: Phospholipid binding to MscL resolved by native MS / IM-MS in C8E4; details: optimised P:L:D ratio of Table 2
T1 sequence (P9WJN5 1-151): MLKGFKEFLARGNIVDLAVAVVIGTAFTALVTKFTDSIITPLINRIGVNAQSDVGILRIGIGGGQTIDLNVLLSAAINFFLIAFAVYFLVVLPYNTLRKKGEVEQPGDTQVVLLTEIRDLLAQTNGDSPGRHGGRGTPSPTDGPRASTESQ

Aquaporin Z (AQPZ) [3] = target: T2, Aquaporin Z (AQPZ) (Escherichia coli, UniProt P60844); assay: Phospholipid binding to AQPZ resolved by native MS / IM-MS in C8E4; design: species or system E. coli; details: for # Bound (number of resolvable phospholipids bound): AQPZ in C8E4, optimised P:L:D ratio of Table 2
ammonium channel (AmtB) = ammonium channel (AmtB) (Escherichia coli, UniProt P69681); assay: Mass spectra and ion mobility MS of AmtB complex in three detergents (Example 2); design: species or system E. coli; details: for experimental collisional cross section (CCS) / folded state: AmtB, IM-MS, CIU fingerprints, C8E4 at ELAB <1500; for species in mass spectrum (expected oligomer versus dissociation products): trimeric AmtB, sample cone 10 volts, collision voltage 200 volts
Protocol: (§1) AmtB-GFP and AQPZ-GFP were extracted from purified membranes in 2% OG in Buffer B and incubated overnight at 4° C. Extracted membrane proteins were clarified by centrifugation at 20,000 g for 25 minutes at 4° C. The clarified supernatant was filtered before loading onto a 5 mL HisTrap-HP column (GE Healthcare, Piscataway, NJ) equilibrated in Buffer E (200 mM sodium chloride, 10% glycerol, 20 mM Imidazole, 0.025% DDM, and 50 mM TRIS, pH 7.4 at room temperature). After the clarified supernatant was loaded, the column was initially washed with 40-50 mL of Buffer E containing 1% OG instead of DDM followed by several column volumes of Buffer E until a steady baseline was reached. Protein was eluted with a linear gradient to 100% in two column volumes of Buffer F (100 mM sodium chloride, 10% glycerol, 500 mM Imidazole, 0.025% DDM, and 50 mM TRIS, pH 7.4 at room temperature). Peak fractions were pooled, supplemented with 5mM BME and His-tagged TEV protease, arid dialyzed against Buffer G (150 mM sodium chloride, 10% glycerol, 20 mM Imidazole, 0.02% DDM, and 50 mM TRIS, pH 7.4 at room temperature) overnight at 4° C. After overnight incubation at 4° C., samples were filtered and passed back over a 5 mL. HisTrap-HP column equilibrated in Buffer E. Flow through containing the untagged membrane protein was collected and concentrated using a 100 kDa MWCO concentrator. Concentrated protein was flash frozen in liquid nitrogen and stored at -80° C.
(§2) Frozen samples were thawed on ice prior to detergent exchange over gel filtration. Samples were injected on a Superdex 200 10/300 (GE Healthcare) equilibrated in Buffer H (130 mM sodium chloride, 10% glycerol, and 50 mM TRIS, pH 7.4 at room temperature) supplemented with 0.5% of C8E4, 0.4% of NG, or 0.02% of DDM. Peak fractions were concentrated using a 100 kDa MWCO concentrator. Concentrated protein was either used directly or flash-frozen in liquid nitrogen and stored at −80° C. Purified membrane proteins were buffer exchanged into MS Buffer (2× CMC detergent of interest and 200 mM Ammonium Acetate, pH 8.0 with Ammonium Hydroxide) using a centrifugal buffer exchange device (Micro Bio-Spin 6, Bio-Rad).
(§3) Buffer exchanged protein was analysed on a quadrupole ion mobility time-of-flight mass spectrometer (Synapt HDMS, Waters Corp.) modified with an 18 cm drift cell with radial RF confinement (RF amplitude 200 V) and a linear voltage gradient along the axis of ion transmission such that collision cross section (CCS) values could be determined directly.
(§4) Mass spectra were acquired with instrument set to 10 volts for sample cone and 200 volts for collision voltage.
(§5) The preservation of native structure is most likely due to the charge reducing behaviour of C8E4, as well as other polyoxyalkylene glycol detergents, which results in a two to five fold reduction in activation energy. In addition, under ELAB values slightly greater than 1500, the CCS value increases consistent with partial unfolding. More importantly, gas-phase unfolding can be observed for these membrane complexes at ELAB values of 1750 to 2250. These gas-phase unfolding transitions can be altered in the presence of a drug molecule that stabilises protein structure, thereby enabling the detection of drug molecules that stabilise protein structure.

Aquaporin Z (AQPZ) [4] = target: T2, Aquaporin Z (AQPZ); assay: Mass spectra and ion mobility MS of AQPZ complex in three detergents (Example 2); design: species or system E. coli; details: for experimental collisional cross section (CCS) / folded state: AQPZ, IM-MS, CIU fingerprints, C8E4 at ELAB <1500; for species in mass spectrum (expected oligomer versus dissociation products): tetrameric AQPZ, sample cone 10 volts, collision voltage 200 volts
Protocol: as §1, §2, §3, §4, §5

T2 sequence (P60844 whole entry): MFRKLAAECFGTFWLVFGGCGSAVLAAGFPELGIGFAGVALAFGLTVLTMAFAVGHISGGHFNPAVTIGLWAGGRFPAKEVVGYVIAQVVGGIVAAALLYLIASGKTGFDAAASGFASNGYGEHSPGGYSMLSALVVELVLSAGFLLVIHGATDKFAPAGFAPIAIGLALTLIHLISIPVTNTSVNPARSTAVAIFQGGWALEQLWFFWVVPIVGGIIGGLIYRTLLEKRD

| Compound | Zavg (mean charge state) [1] | # Bound (number of resolvable phospholipids bound) [2] | also measured |
| --- | --- | --- | --- |
| polyethylene glycol tert-octylphenyl ether [TX100] | 21.6 | – | – |
| L-α-phosphatidylethanolamine (E. coli) [PE] | – | 1 | # Bound (number of resolvable phospholipids bound) (ammonia channel (AmtB)): 2; # Bound (number of resolvable phospholipids bound) (Aquaporin Z (AQPZ) [3]): 1 |
| CCCCCCCC/C=C\CCCCCCCC(=O)OC[C@H](COP(=O)([O-])OCC[N+](C)(C)C)OC(=O)CCCCCCC/C=C\CCCCCCCC (stereo in doubt) [DOPC, 1,2-dioleoyl-sn-glycero-3-phosphocholine (18:1 Cis)] | – | 2 | – |
| CCCCCCCCCO[C@@H]1O[C@H](CO)[C@@H](O)[C@H](O)[C@H]1O [NG, n-Nonyl-β-D-glucopyranoside] | 30.4 | – | experimental collisional cross section (CCS) / folded state (ammonium channel (AmtB)): no CCS could be observed indicating native structure; species in mass spectrum (expected oligomer versus dissociation products) (ammonium channel (AmtB)): mainly dissociation products; experimental collisional cross section (CCS) / folded state (Aquaporin Z (AQPZ) [4]): the complex is unfolded; species in mass spectrum (expected oligomer versus dissociation products) (Aquaporin Z (AQPZ) [4]): mainly dissociation products |
| Octyl Glucose Neopentyl Glycol [OGNG] | 27.9 | – | – |
| CCCC/C=C\CCCCCCCC(=O)OC[C@H](COP(=O)([O-])OCC[N+](C)(C)C)OC(=O)CCCCCCC/C=C\CCCC (stereo in doubt) [DMPC, 1,2-dimyristoleoyl-sn-glycero-3-phosphocholine (14:1 Cis)] | – | 2 | – |
| CCCCCCCCCCCOC1OC(CO)C(OC2OC(CO)C(O)C(O)C2O)C(O)C1O [UDM, n-Undecyl-β-D-maltoside] | 30.3 | – | – |
| OC[C@H]1O[C@H](O[C@H]2[C@H](O)[C@@H](O)[C@H](OCCCCCCC3CCCCC3)O[C@@H]2CO)[C@H](O)[C@@H](O)[C@@H]1O [Cy6, Cymal-6] | 30.5 | – | – |
| CCCCCCCCCCO[C@@H]1O[C@H](CO)[C@@H](O[C@H]2O[C@H](CO)[C@@H](O)[C@H](O)[C@H]2O)[C@H](O)[C@H]1O [DM, n-Decyl-β-D-maltoside] | 31.4 | – | – |
| CCCCCCCCCCCCO[C@@H]1O[C@H](CO)[C@@H](O[C@H]2O[C@H](CO)[C@@H](O)[C@H](O)[C@H]2O)[C@H](O)[C@H]1O [DDM, n-Dodecyl-β-D-maltoside] | 30.4 | – | experimental collisional cross section (CCS) / folded state (ammonium channel (AmtB)): all unfolded CCS values; species in mass spectrum (expected oligomer versus dissociation products) (ammonium channel (AmtB)): mainly dissociation products; experimental collisional cross section (CCS) / folded state (Aquaporin Z (AQPZ) [4]): all unfolded CCS values; species in mass spectrum (expected oligomer versus dissociation products) (Aquaporin Z (AQPZ) [4]): mainly dissociation products |
| CCCCCCCC/C=C\CCCCCCCCCCCC(=O)OC[C@H](COP(=O)([O-])OCC[N+](C)(C)C)OC(=O)CCCCCCCCCCC/C=C\CCCCCCCC (stereo in doubt) [DEPC, 1 ,2-dierucoyl-sn-glycero-3-phosphocholine (22:1 Cis)] | – | 2 | – |
| polyoxyethylene (20) cetyl ether [C16E20] | 25.0 | – | – |
| CCCCCCCCS[C@@H]1O[C@H](CO)[C@@H](O)[C@H](O)[C@H]1O [OTG, n-Octyl-β-D-thioglucopyranoside] | 31.9 | – | – |
| CCCCCC/C=C\CCCCCCCC(=O)OC[C@H](COP(=O)([O-])OCC[N+](C)(C)C)OC(=O)CCCCCCC/C=C\CCCCCC (stereo in doubt) [DPPC, 1,2-dipalmitoleoyl-sn-glycero-3-phosphocholine (16:1 Cis)] | – | 2 | – |
| CCCCCCCC/C=C\CCCCCCCCCCCCCC(=O)OC[C@H](COP(=O)([O-])OCC[N+](C)(C)C)OC(=O)CCCCCCCCCCCCC/C=C\CCCCCCCC (stereo in doubt) [DNPC, 1,2-dinervonoyl-sn-glycero-3-phosphocholine (24:1 Cis)] | – | 2 | – |
| CCCCCCCCOCCOCCOCCOCCO [C8E4, tetraethylene glycol monooctyl ether] | 21.3 | – | experimental collisional cross section (CCS) / folded state (ammonium channel (AmtB)): consistent with calculated CCS values from their respective crystal structure; species in mass spectrum (expected oligomer versus dissociation products) (ammonium channel (AmtB)): no observable dissociation products; experimental collisional cross section (CCS) / folded state (Aquaporin Z (AQPZ) [4]): consistent with calculated CCS values from their respective crystal structure; species in mass spectrum (expected oligomer versus dissociation products) (Aquaporin Z (AQPZ) [4]): no observable dissociation products |
| CCCCCCCC/C=C\CCCCCCCCCC(=O)OC[C@H](COP(=O)([O-])OCC[N+](C)(C)C)OC(=O)CCCCCCCCC/C=C\CCCCCCCC (stereo in doubt) [DIPC, 1,2-dieicosenoyl-sn-glycero-3-phosphocholine (20:1 Cis)] | – | 2 | – |
| OC[C@H]1O[C@H](O[C@H]2[C@H](O)[C@@H](O)[C@H](OCCCCCC3CCCCC3)O[C@@H]2CO)[C@H](O)[C@@H](O)[C@@H]1O [Cy5, Cymal-5] | 31.3 | – | – |
| polyoxyethylene (8) dodecyl ether [C12E8] | 25.8 | – | – |
| 1-palrnitoyl-2-oleoyl-sn-glycero-3-phosphocholine (16:0-18:1) [PC] | – | 3 | # Bound (number of resolvable phospholipids bound) (ammonia channel (AmtB)): 3; # Bound (number of resolvable phospholipids bound) (Aquaporin Z (AQPZ) [3]): 3; bound phospholipid molecules (Aquaporin Z (AQPZ) [3]; AQPZ tetramer, mass spectra and ion mobility (FIG. 9)): up to four; bound phospholipid molecules resolved (Aquaporin Z (AQPZ) [3]; AQPZ, collision voltage 130 V (FIG. 6a)): one to six |
| CCCCCCCCO[C@@H]1O[C@H](CO)[C@@H](O)[C@H](O)[C@H]1O [OG, n-Octyl-β-D-glucopyranoside] | 31.2 | – | – |
| CCCCCCCC/C=C\CCCCCCCC(=O)OC[C@H](COP(=O)(O)O[C@H]1C(O)C(O)C(O)[C@@H](OP(=O)(O)O)C1O)OC(=O)CCCCCCC/C=C\CCCCCCCC (some centres unmarked) [PI] | – | 4 | – |
| CCCCCCCCCCCCS[C@@H]1O[C@H](CO)[C@@H](O[C@H]2O[C@H](CO)[C@@H](O)[C@H](O)[C@H]2O)[C@H](O)[C@H]1O [DDTM, n-Dodecyl-β-D-thiomaltopyranoside] | 30.0 | – | – |

Source: patent publication US20150346214A1, “DETECTION OF MEMBRANE PROTEINS” (priority 2012, published 2015)
